Drawing on patent US9856252B2, “2-(hetero)aryl-benzimidazole and imidazopyridine derivatives as inhibitors of asparagime emethyl transferase” (Cancer Therapeutics CRC Pty Ltd, priority 2013, dated 2018), this text covers IC50 for 39 compounds.

The structures appear in SMILES notation. Structures can show the parent of a compound that is named as a salt.

In general, IC50 refers to the concentration that inhibits the measured activity by half. A lower IC50 goes with greater potency.

The target in the test is Full-length PRMT5 enzyme (NCBI Reference sequence NP_006100.2) co-expressed with His6-MEP50 (Homo sapiens (Human), UniProt O14744). The experiment in a line: PRMT5 Biochemical Assay. The settings on record: histone H4 derived peptide substrate 200 nM, 1 μM S-Adenosyl methionine, 4 hours at 37° C., Transcreener EPIGEN fluorescence polarisation. As for the experimental part: Compounds of the invention may be tested for in vitro activity in the following assay: A histone H4 derived peptide is used as substrate (amino acid sequence: […]N H2). Full-length PRMT5 enzyme (NCBI Reference sequence NP_006100.2) was co-expressed with His6-MEP50 in insect cells and purified via Nickel immobilized metal affinity and gel filtration chromatography (“the enzyme”).
Chain of Full-length PRMT5 enzyme (NCBI Reference sequence NP_006100.2) co-expressed with His6-MEP50 (O14744 whole entry): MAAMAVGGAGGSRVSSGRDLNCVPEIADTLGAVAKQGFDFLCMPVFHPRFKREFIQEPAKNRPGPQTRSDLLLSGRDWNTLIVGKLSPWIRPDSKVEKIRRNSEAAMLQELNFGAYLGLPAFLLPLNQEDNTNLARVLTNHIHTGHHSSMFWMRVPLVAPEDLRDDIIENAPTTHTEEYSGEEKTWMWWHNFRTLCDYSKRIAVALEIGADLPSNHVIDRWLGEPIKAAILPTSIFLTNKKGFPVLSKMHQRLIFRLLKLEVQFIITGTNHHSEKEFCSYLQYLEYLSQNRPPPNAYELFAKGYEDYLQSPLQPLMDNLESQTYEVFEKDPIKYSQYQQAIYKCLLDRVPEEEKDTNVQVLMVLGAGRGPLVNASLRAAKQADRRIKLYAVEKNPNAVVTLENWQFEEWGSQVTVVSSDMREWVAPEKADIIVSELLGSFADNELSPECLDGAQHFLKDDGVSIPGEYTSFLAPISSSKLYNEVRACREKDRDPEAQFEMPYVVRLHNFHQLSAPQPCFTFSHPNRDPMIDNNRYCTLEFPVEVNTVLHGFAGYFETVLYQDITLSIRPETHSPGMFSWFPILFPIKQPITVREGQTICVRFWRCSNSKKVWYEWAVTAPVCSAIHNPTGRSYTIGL
Chain of Full-length PRMT5 enzyme (NCBI Reference sequence NP_006100.2) co-expressed with His6-MEP50 (Q9BQA1 whole entry partner): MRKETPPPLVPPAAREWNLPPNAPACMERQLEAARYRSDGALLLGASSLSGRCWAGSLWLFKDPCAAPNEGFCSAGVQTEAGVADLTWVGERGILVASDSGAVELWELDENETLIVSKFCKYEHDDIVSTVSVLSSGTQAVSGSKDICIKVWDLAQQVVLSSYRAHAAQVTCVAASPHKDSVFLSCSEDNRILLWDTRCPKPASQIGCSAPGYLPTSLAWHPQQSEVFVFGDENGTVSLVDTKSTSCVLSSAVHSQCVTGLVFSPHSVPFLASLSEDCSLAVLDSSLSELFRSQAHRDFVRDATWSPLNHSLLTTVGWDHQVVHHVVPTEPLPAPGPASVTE
The 6 μL assay reactions are run in Greiner brand black 384-well low volume plates. All reactions contained assay buffer (phosphate buffered saline, 0.01% (v/v) Tween-20, 0.01% (w/v) albumin from chicken egg white, 1 mM dithiothreitol, 200 nM peptide substrate, 1 μM S-Adenosyl methionine, and 15 ng/reaction enzyme, with the enzyme being omitted from negative control reactions. Compounds were added in a volume of 100 nL from dilution series prepared in DMSO, positive and negative control reactions receiving the same volume DMSO without compound. The plates were sealed with adhesive seals and incubated for 4 hours at 37° C. Reaction progress was measured using the Transcreener™ EPIGEN methyltransferase assay (BellBrook Labs, Madison, Wis.) as recommended by the manufacturer. To each reaction 2 μL detection mix were added, containing coupling enzymes, fluorescence polarisation tracer, and AMP antibody. Plates were incubated for 90 minutes before being read on a PerkinElmer EnVision™ plate reader in fluorescence polarisation mode.
A general note: Fluorescence polarisation rises when a labelled molecule tumbles more slowly, as on binding a larger partner.
For the compound `c1ccc(OCc2ccc(-c3nc4ccc(C5CCCNC5)nc4[nH]3)cc2)cc1` (stereo not drawn) [Example 35, 2-(4-(phenoxymethyl)phenyl)-5-(piperidin-3-yl)-3H-imidazo[4,5-b]pyridine], the IC50 amounted to 0.204 µM.
To `CCS(=O)(=O)N1CCN(c2ccc3nc(-c4ccc(OCc5ccccc5)c(C)c4)[nH]c3n2)CC1` [Example 74, 2-(4-(benzyloxy)-3-methylphenyl)-5-(4-(ethylsulfonyl)piperazin-1-yl)-3H-imidazo[4,5-b]pyridine] belongs 1.36 µM.
In the case of `O=S(=O)(C1CC1)N1CCN(c2ccc3nc(-c4ccc(OCc5ccccc5)cc4)[nH]c3n2)CC1` [Example 92, 2-(4-(benzyloxy)phenyl)-5-(4-(cyclopropylsulfonyl)piperazin-1-yl)-3H-imidazo[4,5-b]pyridine], it took 0.279 µM to reach half-maximal inhibition (IC50).
The figure for `CN1CCN(c2ccc3nc(-c4ccc(OCc5ccccc5)cc4)[nH]c3n2)CC1` [Example 26, 2-(4-(benzyloxy)phenyl)-5-(4-methylpiperazin-1-yl)-3H-imidazo[4,5-b]pyridine] is 0.132 µM.
The figure for `[O-][S+]1CCN(c2ccc3nc(-c4ccc(OCc5ccccc5)cc4)[nH]c3n2)CC1` [Example 24, 4-(2-(4-(benzyloxy)phenyl)-3H-imidazo[4,5-b]pyridin-5-yl)thiomorpholine 1-oxide] is 0.57 µM; for `CS(=O)(=O)N1CCC(c2cnc3[nH]c(-c4ccc(OCc5ccccc5)cc4)nc3c2)CC1` [Example 83, 2-(4-(benzyloxy)phenyl)-6-(1-(methylsulfonyl)piperidin-4-yl)-3H-imidazo[4,5-b]pyridine] it is 1.11 µM.
`c1ccc(COc2ccc(-c3nc4ccc(NC5CCNCC5)nc4[nH]3)cc2)cc1` [Example 53]: the IC50 is 0.581 µM.
To `O=S(=O)(C1CC1)N1CCC(c2ccc3nc(-c4ccc(OCc5ccccc5)cc4)[nH]c3n2)CC1` [Example 89, 2-(4-(benzyloxy)phenyl)-5-(1-(cyclopropylsulfonyl)piperidin-4-yl)-3H-imidazo[4,5-b]pyridine] belongs 1.34 µM.
To `FC(F)(F)c1ccc(COc2ccc(-c3nc4ccc(N5CCNCC5)nc4[nH]3)cc2)cc1` [Example 56] belongs 1.86 µM; to `CCOC(=O)N1CCC(c2ccc3nc(-c4ccc(OCc5ccccc5)cc4)[nH]c3n2)CC1` [Example 88, ethyl 4-(2-(4-(benzyloxy)phenyl)-3H-imidazo[4,5-b]pyridin-5-yl)piperidine-1-carboxylate], 0.477 µM; to `c1ccc(COc2ccc(-c3nc4ccc(NCC5CCCCN5)nc4[nH]3)cc2)cc1` (stereo not drawn) [Example 51], 0.547 µM.
To `NC1CCN(c2ccc3nc(-c4ccc(OCc5ccccc5)cc4)[nH]c3n2)CC1` [Example 54] belongs 0.583 µM; to `O=C1CNCCN1c1ccc2nc(-c3ccc(OCc4ccccc4)cc3)[nH]c2n1` [Example 21, 1-(2-(4-(benzyloxy)phenyl)-3H-imidazo[4,5-b]pyridin-5-yl)piperazin-2-one], 0.774 µM.
`c1ccc(OCc2ccc(-c3nc4cccnc4[nH]3)cc2)cc1` [Example 1, 2-(4-(phenoxymethyl)phenyl)-3H-imidazo[4,5-b]pyridine]: the IC50 came to 1.49 µM. This IC50 is about 1.9-fold higher than that of the compound before.
The figure for `c1ccc(CSc2ccc(-c3nc4ccc(N5CCNCC5)nc4[nH]3)cc2)cc1` [Example 96, 2-(4-(benzylthio)phenyl)-5-(piperazin-1-yl)-3H-imidazo[4,5-b]pyridine] is 0.585 µM; for `CN(c1ccc2nc(-c3ccc(OCc4ccccc4)cc3)[nH]c2n1)C1CCCN(C(=O)OC(C)(C)C)C1` (stereo not drawn) [Example 30, tert-butyl 3-((2-(4-(benzyloxy)phenyl)-3H-imidazo[4,5-b]pyridin-5-yl)(methyl)amino)piperidine-1-carboxylate] it is 2.66 µM; for `CCS(=O)(=O)N1CCN(c2ccc3nc(-c4ccc(OCc5ccccc5)c(-c5cnn(C)c5)c4)[nH]c3n2)CC1` [Example 69, 2-(4-(benzyloxy)-3-(1-methyl-1H-pyrazol-4-yl)phenyl)-5-(4-(ethylsulfonyl)piperazin-1-yl)-3H-imidazo[4,5-b]pyridine] it is 0.447 µM.
Take `CNC(=O)Cc1ccnc2[nH]c(-c3ccc(OCc4ccccc4)cc3)nc12` [Example 93, 2-(2-(4-(benzyloxy)phenyl)-3H-imidazo[4,5-b]pyridin-7-yl)-N-methylacetamide]: the IC50 worked out at 2.14 µM.
`Cn1cc(-c2ccc3nc(-c4ccc(OCc5ccccc5)cc4)[nH]c3n2)cn1` [Example 107] had a half-inhibitory concentration (IC50) of 1.67 µM.
To `CC(C)(C)OC(=O)N1CCC(Nc2ccc3nc(-c4ccc(OCc5ccccc5)cc4)[nH]c3n2)CC1` [Example 32, tert-butyl 4-((2-(4-(benzyloxy)phenyl)-3H-imidazo[4,5-b]pyridin-5-yl)amino)piperidine-1-carboxylate] belongs 0.827 µM; to `CC(=O)N1CC=C(c2ccc3nc(-c4ccc(OCc5ccccc5)cc4)[nH]c3n2)CC1` [Example 98, 1-(4-(2-(4-(benzyloxy)phenyl)-3H-imidazo[4,5-b]pyridin-5-yl)-3,6-dihydropyridin-1 (2H)-yl)ethan-1-one], 0.166 µM.
To `COC(=O)c1cc(-c2nc3cc(C4CCNCC4)cnc3[nH]2)ccc1OCc1ccccc1` [Example 66, methyl 2-(benzyloxy)-5-(6-(piperidin-4-yl)-3H-imidazo[4,5-b]pyridin-2-yl)benzoate dihydrogen chloride salt] belongs 0.608 µM.
Compound `CCS(=O)(=O)N1CCN(c2ccc3nc(-c4ccc(OCc5ccccc5)c(-c5cccnc5)c4)[nH]c3n2)CC1` [Example 71] yielded an IC50 of 0.542 µM.
To `CC(C)(C)OC(=O)NCC1CCCN(c2ccc3nc(-c4ccc(OCc5ccccc5)cc4)[nH]c3n2)C1` (stereo not drawn) [Example 28, tert-butyl ((1-(2-(4-(benzyloxy)phenyl)-3H-imidazo[4,5-b]pyridin-5-yl)piperidin-3-yl)methyl)carbamate] belongs 1.68 µM; to `CN(C)c1ccc2nc(-c3ccc(OCc4ccccc4)cc3)[nH]c2n1` [Example 48, 2-(4-(benzyloxy)phenyl)-N,N-dimethyl-3H-imidazo[4,5-b]pyridin-5-amine], 0.45 µM.
To `CC(C)(C)OC(=O)N1CCC(CNc2ccc3nc(-c4ccc(OCc5ccccc5)cc4)[nH]c3n2)CC1` [Example 31, tert-butyl 4-(((2-(4-(benzyloxy)phenyl)-3H-imidazo[4,5-b]pyridin-5-yl)amino)methyl)piperidine-1-carboxylate] belongs 1.24 µM; to `CCS(=O)(=O)N1CCN(c2ccc3nc(-c4ccc(OCc5ccccc5)c(-c5ccn[nH]5)c4)[nH]c3n2)CC1` [Example 70], 1.11 µM; to `CC(=O)NCCNc1ccc2nc(-c3ccc(OCc4ccccc4)cc3)[nH]c2n1` [Example 22, N-(2-((2-(4-(benzyloxy)phenyl)-3H-imidazo[4,5-b]pyridin-5-yl)amino)ethyl)acetamide], 0.487 µM.
The compound `NCC1CCCN(c2ccc3nc(-c4ccc(OCc5ccccc5)cc4)[nH]c3n2)C1` (stereo not drawn) [Example 50] had a 50% inhibitory concentration (IC50) of 0.317 µM.
In turn, `O=C(O)Cc1ccnc2[nH]c(-c3ccc(OCc4ccccc4)cc3)nc12` [Example 77, 2-(2-(4-(benzyloxy)phenyl)-3H-imidazo[4,5-b]pyridin-7-yl)acetic acid] returned an IC50 of 0.901 µM.
The figure for `Fc1ccc(COc2ccc(-c3nc4ccc(N5CCNCC5)nc4[nH]3)cc2)cc1` [Example 59] is 0.535 µM; for `c1ccc(COc2ccc(-c3nc4ccc(NCC5CCNCC5)nc4[nH]3)cc2)cc1` [Example 52] it is 0.935 µM; for `O=C(O)c1cc(-c2nc3cc(C4CCNCC4)cnc3[nH]2)ccc1OCc1ccccc1` [Example 67, 2-(benzyloxy)-5-(6-(piperidin-4-yl)-3H-imidazo[4,5-b]pyridin-2-yl)benzoic acid dihydrochloride salt] it is 3.72 µM.
In the case of `c1ccc(OCc2ccc(-c3nc4ccc(C5CCNCC5)nc4[nH]3)cc2)cc1` [Example 85, 2-(4-(phenoxymethyl)phenyl)-5-(piperidin-4-yl)-3H-imidazo[4,5-b]pyridine], the IC50 was 0.151 µM. Compared with the last compound, the IC50 is about 25-fold lower.
The figure for `c1ccc(COc2ccc(-c3nc4ccc(Nc5cn[nH]c5)nc4[nH]3)cc2)cc1` [Example 20, 2-(4-(benzyloxy)phenyl)-N-(1H-pyrazol-4-yl)-3H-imidazo[4,5-b]pyridin-5-amine] is 0.847 µM; for `CC(=O)N1CCC(c2cnc3[nH]c(-c4ccc(COc5ccccc5)cc4)nc3c2)CC1` [Example 10, 1-(4-(2-(4-(phenoxymethyl)phenyl)-3H-imidazo[4,5-b]pyridin-6-yl)piperidin-1-yl)ethanone] it is 0.375 µM; for `CC(=O)N1CCC(c2cnc3[nH]c(-c4ccc(OCc5ccccc5)cc4)nc3c2)CC1` [Example 13, 1-(4-(2-(4-(Benzyloxy)phenyl)-3H-imidazo[4,5-b]pyridin-6-yl)piperidin-1-yl)ethanone] it is 0.339 µM.
On to `CCS(=O)(=O)N1CCN(c2ccc3nc(-c4ccc(OCc5ccccc5)cc4)[nH]c3n2)CC1` [Example 27, 2-(4-(benzyloxy)phenyl)-5-(4-(ethylsulfonyl)piperazin-1-yl)-3H-imidazo[4,5-b]pyridine], for which it took 0.148 µM to reach half-maximal inhibition (IC50). This IC50 lies about 2.3-fold lower than the previous one.
The figure for `c1ccc(COc2ccc(-c3nc4ccc(N5CCSCC5)nc4[nH]3)cc2)cc1` [Example 23, 4-(2-(4-(benzyloxy)phenyl)-3H-imidazo[4,5-b]pyridin-5-yl)thiomorpholine] is 0.497 µM.
